Data from PubChem BioAssay AID1963440 (Molecular Pharmacology Branch, DTP, NCI, 2024).
pIC50: −log10 of the molar value.

Test system: NCI-H1417 complex spheroids, growth % test/control
Experiment: Anticancer human tumor NCI-H1417 cell line growth inhibition [Asc];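 also: spheroids exposed to compounds for 7 days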;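 as to viability, T/C: 100% = DMSO vehicle control wells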
Conditions: for pIC50: curve of first compound; for viability, T/C: stronger effect = lower value; active = viability on the fitted dose curve at most 10% of control; inactive = the rest
Procedure, shortened: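 Stromal components (HUVEC and hMSC) are co-assembled with the cancer cells into multicellular spheroids. Drugs are then added singly or paired, at concentrations falling by half-log increments from a clinically achievable maximum, capped at 10 microM without known Cmax.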

[1] = second compound 0.1 µM, first compound 0.00316 µM
[2] = second compound 0.1 µM, first compound 0.01 µM
[3] = second compound 0.1 µM, first compound 0.0316 µM
[4] = second compound 0.1 µM, first compound 0.1 µM
[5] = second compound 0.1 µM, first compound 0.316 µM
[6] = second compound 0.1 µM, first compound 1 µM
[7] = second compound 0.316 µM, first compound 0.00316 µM
[8] = second compound 0.316 µM, first compound 0.01 µM
[9] = second compound 0.316 µM, first compound 0.0316 µM
[10] = second compound 0.316 µM, first compound 0.1 µM
[11] = second compound 0.316 µM, first compound 0.316 µM
[12] = second compound 0.316 µM, first compound 1 µM
[13] = second compound 1 µM, first compound 0.00316 µM
[14] = second compound 1 µM, first compound 0.01 µM
[15] = second compound 1 µM, first compound 0.0316 µM
[16] = second compound 1 µM, first compound 0.1 µM
[17] = second compound 1 µM, first compound 0.316 µM
[18] = second compound 1 µM, first compound 1 µM
[19] = second compound 3.16 µM, first compound 0.00316 µM
[20] = second compound 3.16 µM, first compound 0.01 µM
[21] = second compound 3.16 µM, first compound 0.0316 µM
[22] = second compound 3.16 µM, first compound 0.1 µM
[23] = second compound 3.16 µM, first compound 0.316 µM
[24] = second compound 3.16 µM, first compound 1 µM
[25] = second compound 10 µM, first compound 0.00316 µM
[26] = second compound 10 µM, first compound 0.01 µM
[27] = second compound 10 µM, first compound 0.0316 µM
[28] = second compound 10 µM, first compound 0.1 µM
[29] = second compound 10 µM, first compound 0.316 µM
[30] = second compound 10 µM, first compound 1 µM

CCN1CCN(Cc2ccc(Nc3ncc(F)c(-c4cc(F)c5nc(C)n(C(C)C)c5c4)n3)nc2)CC1 + Cc1c(S(C)(=O)=O)c(-c2cc(F)cc(N3CCN(c4ccc(NS(=O)(=O)c5ccc(NC(CCN6CCC(C(=O)OCCCP(=O)(O)O)CC6)CSc6ccccc6)c(S(=O)(=O)C(F)(F)F)c5)cc4)CC3)c2)c(-c2ccc(Cl)cc2)n1C(C)C
> 8.50: pIC50 (second compound 0.316 µM) | pIC50 (second compound 1 µM) | pIC50 (second compound 3.16 µM) | pIC50 (second compound 10 µM)
< 6.00: pIC50 (second compound 0.1 µM)
inactive: viability, T/C [1] 88.6% | viability, T/C [2] 83.6% | viability, T/C [3] 82.2% | viability, T/C [4] 69.5% | viability, T/C [5] 66.6% | viability, T/C [6] 58.1% | viability, T/C [7] 47.8% | viability, T/C [8] 45.8% | viability, T/C [9] 44.7% | viability, T/C [10] 28.9% | viability, T/C [11] 24% | viability, T/C [12] 21% | viability, T/C [13] 14.4% | viability, T/C [14] 12%
active: viability, T/C [15] 10.6% | viability, T/C [16] 7.35% | viability, T/C [17] 6.95% | viability, T/C [18] 2.98% | viability, T/C [19] 2.92% | viability, T/C [20] 2.69% | viability, T/C [21] 2.77% | viability, T/C [22] 2.85% | viability, T/C [23] 2.68% | viability, T/C [24] 3.02% | viability, T/C [25] 2.2% | viability, T/C [26] 2.36% | viability, T/C [27] 2.21% | viability, T/C [28] 1.72% | viability, T/C [29] 2.26% | viability, T/C [30] 2.79%

COc1c(OCCCN2CCOCC2)ccc2c3n(c(=NC(=O)c4cnc(N)nc4)nc12)CCN3 + Cc1c(S(C)(=O)=O)c(-c2cc(F)cc(N3CCN(c4ccc(NS(=O)(=O)c5ccc(NC(CCN6CCC(C(=O)OCCCP(=O)(O)O)CC6)CSc6ccccc6)c(S(=O)(=O)C(F)(F)F)c5)cc4)CC3)c2)c(-c2ccc(Cl)cc2)n1C(C)C
> 8.50: pIC50 (second compound 0.316 µM) | pIC50 (second compound 1 µM) | pIC50 (second compound 3.16 µM) | pIC50 (second compound 10 µM)
inactive: viability, T/C [1] 79.6% | viability, T/C [2] 80.2% | viability, T/C [3] 60.5% | viability, T/C [4] 45.7% | viability, T/C [5] 34.8% | viability, T/C [6] 14.1% | viability, T/C [7] 46.7% | viability, T/C [8] 43% | viability, T/C [9] 24.1% | viability, T/C [10] 12.7% | viability, T/C [13] 14.9% | viability, T/C [14] 9.99%
7.06: pIC50 (second compound 0.1 µM)
active: viability, T/C [11] 10.1% | viability, T/C [12] 3.24% | viability, T/C [15] 8.47% | viability, T/C [16] 2.77% | viability, T/C [17] 1.93% | viability, T/C [18] 0.85% | viability, T/C [19] 2.73% | viability, T/C [20] 2.65% | viability, T/C [21] 1.29% | viability, T/C [22] 0.44% | viability, T/C [23] 0.22% | viability, T/C [24] 0.21% | viability, T/C [25] 2.03% | viability, T/C [26] 1.93% | viability, T/C [27] 1.06% | viability, T/C [28] 0.31% | viability, T/C [29] 0.21% | viability, T/C [30] 0.23%

NC(=O)C(=Cn1cnc(-c2cc(C(F)(F)F)cc(C(F)(F)F)c2)n1)c1cncnc1 + Cc1c(S(C)(=O)=O)c(-c2cc(F)cc(N3CCN(c4ccc(NS(=O)(=O)c5ccc(NC(CCN6CCC(C(=O)OCCCP(=O)(O)O)CC6)CSc6ccccc6)c(S(=O)(=O)C(F)(F)F)c5)cc4)CC3)c2)c(-c2ccc(Cl)cc2)n1C(C)C
inactive: viability, T/C (second compound 0.1 µM, first compound 0.000949 µM) 75.4% | viability, T/C (second compound 0.1 µM, first compound 0.003 µM) 77.7% | viability, T/C (second compound 0.1 µM, first compound 0.00949 µM) 51.9% | viability, T/C (second compound 0.1 µM, first compound 0.03 µM) 24.1% | viability, T/C (second compound 0.316 µM, first compound 0.000949 µM) 38.6% | viability, T/C (second compound 0.316 µM, first compound 0.003 µM) 29.7% | viability, T/C (second compound 0.316 µM, first compound 0.00949 µM) 20.7% | viability, T/C (second compound 0.316 µM, first compound 0.03 µM) 10.5%
> 9.02: pIC50 (second compound 0.316 µM) | pIC50 (second compound 1 µM) | pIC50 (second compound 3.16 µM) | pIC50 (second compound 10 µM)
7.95: pIC50 (second compound 0.1 µM)
active: viability, T/C (second compound 0.1 µM, first compound 0.0949 µM) 8.22% | viability, T/C (second compound 0.1 µM, first compound 0.3 µM) 3.52% | viability, T/C (second compound 0.316 µM, first compound 0.0949 µM) 3.84% | viability, T/C (second compound 0.316 µM, first compound 0.3 µM) 1.35% | viability, T/C (second compound 1 µM, first compound 0.000949 µM) 8.75% | viability, T/C (second compound 1 µM, first compound 0.003 µM) 8.33% | viability, T/C (second compound 1 µM, first compound 0.00949 µM) 5.84% | viability, T/C (second compound 1 µM, first compound 0.03 µM) 3.45% | viability, T/C (second compound 1 µM, first compound 0.0949 µM) 1.82% | viability, T/C (second compound 1 µM, first compound 0.3 µM) 0.83% | viability, T/C (second compound 3.16 µM, first compound 0.000949 µM) 2.8% | viability, T/C (second compound 3.16 µM, first compound 0.003 µM) 2.41% | viability, T/C (second compound 3.16 µM, first compound 0.00949 µM) 2.15% | viability, T/C (second compound 3.16 µM, first compound 0.03 µM) 2.26% | viability, T/C (second compound 3.16 µM, first compound 0.0949 µM) 1.59% | viability, T/C (second compound 3.16 µM, first compound 0.3 µM) 0.92% | viability, T/C (second compound 10 µM, first compound 0.000949 µM) 2.33% | viability, T/C (second compound 10 µM, first compound 0.003 µM) 1.83% | viability, T/C (second compound 10 µM, first compound 0.00949 µM) 2.16% | viability, T/C (second compound 10 µM, first compound 0.03 µM) 2.37% | viability, T/C (second compound 10 µM, first compound 0.0949 µM) 1.29% | viability, T/C (second compound 10 µM, first compound 0.3 µM) 0.5%

NC1CCC(NC2CC2c2ccccc2)CC1 (stereo not given) + Cc1c(S(C)(=O)=O)c(-c2cc(F)cc(N3CCN(c4ccc(NS(=O)(=O)c5ccc(NC(CCN6CCC(C(=O)OCCCP(=O)(O)O)CC6)CSc6ccccc6)c(S(=O)(=O)C(F)(F)F)c5)cc4)CC3)c2)c(-c2ccc(Cl)cc2)n1C(C)C
< 7.00: pIC50 (second compound 0.1 µM)
> 9.50: pIC50 (second compound 0.316 µM) | pIC50 (second compound 1 µM) | pIC50 (second compound 3.16 µM) | pIC50 (second compound 10 µM)
active: viability, T/C (second compound 3.16 µM, first compound 0.000316 µM) 1.88% | viability, T/C (second compound 3.16 µM, first compound 0.001 µM) 1.85% | viability, T/C [19] 2.09% | viability, T/C [20] 1.09% | viability, T/C [21] 1.14% | viability, T/C [22] 2.64% | viability, T/C (second compound 10 µM, first compound 0.000316 µM) 1.53% | viability, T/C (second compound 10 µM, first compound 0.001 µM) 1.86% | viability, T/C [25] 1.9% | viability, T/C [26] 1.64% | viability, T/C [27] 2.09% | viability, T/C [28] 1.63%
inactive: viability, T/C (second compound 0.1 µM, first compound 0.000316 µM) 66.5% | viability, T/C (second compound 0.1 µM, first compound 0.001 µM) 69% | viability, T/C [1] 61.8% | viability, T/C [2] 65.1% | viability, T/C [3] 65.7% | viability, T/C [4] 64.3% | viability, T/C (second compound 0.316 µM, first compound 0.000316 µM) 45.1% | viability, T/C (second compound 0.316 µM, first compound 0.001 µM) 43.2% | viability, T/C [7] 34.7% | viability, T/C [8] 40.1% | viability, T/C [9] 38.8% | viability, T/C [10] 38.8% | viability, T/C (second compound 1 µM, first compound 0.000316 µM) 12.5% | viability, T/C (second compound 1 µM, first compound 0.001 µM) 14.6% | viability, T/C [13] 16.3% | viability, T/C [14] 11.2% | viability, T/C [15] 16.2% | viability, T/C [16] 15.7%

O=C(c1ccc(F)c(F)c1Nc1ccc(I)cc1F)N1CC(O)([C@@H]2CCCCN2)C1 + Cc1c(S(C)(=O)=O)c(-c2cc(F)cc(N3CCN(c4ccc(NS(=O)(=O)c5ccc(NC(CCN6CCC(C(=O)OCCCP(=O)(O)O)CC6)CSc6ccccc6)c(S(=O)(=O)C(F)(F)F)c5)cc4)CC3)c2)c(-c2ccc(Cl)cc2)n1C(C)C
< 6.00: pIC50 (second compound 0.1 µM)
inactive: viability, T/C [1] 84.2% | viability, T/C [2] 81.2% | viability, T/C [3] 80.8% | viability, T/C [4] 83.7% | viability, T/C [5] 71.5% | viability, T/C [6] 59.1% | viability, T/C [7] 46.5% | viability, T/C [8] 50.1% | viability, T/C [9] 44.7% | viability, T/C [10] 37.9% | viability, T/C [11] 28.8% | viability, T/C [12] 33.4% | viability, T/C [13] 13.9% | viability, T/C [14] 11.9%
> 8.50: pIC50 (second compound 0.316 µM) | pIC50 (second compound 1 µM) | pIC50 (second compound 3.16 µM) | pIC50 (second compound 10 µM)
active: viability, T/C [15] 10.4% | viability, T/C [16] 5.1% | viability, T/C [17] 2.22% | viability, T/C [18] 2.04% | viability, T/C [19] 2.87% | viability, T/C [20] 2.41% | viability, T/C [21] 2.22% | viability, T/C [22] 0.97% | viability, T/C [23] 0.48% | viability, T/C [24] 0.27% | viability, T/C [25] 2.15% | viability, T/C [26] 1.85% | viability, T/C [27] 1.55% | viability, T/C [28] 0.9% | viability, T/C [29] 1.3% | viability, T/C [30] 0.32%
